Experimental data taken from patent US9546175B2, “Organic compounds” (Intra-Cellular Therapies, Inc., priority 2014, dated 2017).

Experiment: Pharmacokinetic analysis in mice, plasma and brain levels by LC-MS/MS
Assay type: in vivo
Settings: mouse, male C57BL/6 mice, 10 mg/kg oral (PO), 0.25-2 h, read-out: B/P ratio (Brain AUC(0-2h)/Plasma AUC(0-2h))
Experimental: Animals: Male, C57BL/6 mice (Jackson Labs, 25-30 g in body weight) are provided by Jackson Laboratories. Up to five mice are housed per cage and are maintained under a 12 hour light/dark cycle with access to food and water ad libitum. All procedures for the handling and use of animals follow the guidelines of the Institutional Animal Care and Use Committee (IACUC) of Columbia University, in accordance with NIH guidelines. Eight week-old mice (N=3/dose level or treatment group) are used in the experiments.
Experimental Treatment: Compounds: Selected Compounds of the Invention are evaluated in the present study. […]
Compound Preparation: Powdered stocks of the test compound(s) are measured and dissolved in 3% 1N HCl, 5% Labrasol and 92% of 5% TPGS in 0.05M Citrate buffer (CB, pH 4.0). […]
Treatment of Animals: Mice (N=3 mice/dose/time point) receive a 10 mg/kg oral (PO) dose of the test compound(s) at time 0. […] Plasma and brain tissue samples are processed and analyzed by the analytical group using LC-MS/MS methods, as described below. […]
Each tube is vortexed, then centrifuged for 20 min at 15000 rpm using a Tomy benchtop centrifuge at 4° C., Standard is an internal standard used for LC-MS/MS quantitation. […]
Each compound is detected and quantified using Multiple Reaction Monitoring (MRM) of positive electrospray mode with a Waters QuattroMicro™ mass spectrometry system. […]

Structure (SMILES) | Kp
CC(C)Cn1c(=O)n(C)c(=O)c2c(Nc3ccccc3)n(Cc3ccc(S(N)(=O)=O)cc3)nc21 [Example 1, 4-((7-Isobutyl-5-methyl-4,6-dioxo-3-(phenylamino)-4,5,6,7-tetrahydropyrazolo[3,4-d]pyrimidin-2-yl)methyl)benzenesulfonamide] | ≤ 0.05
CC(C)Cn1c(=O)n(C)c(=O)c2c(Nc3ccccc3)n(Cc3ccc(C(=O)O)cc3)nc21 [Example 2, 4-((7-isobutyl-5-methyl-4,6-dioxo-3-(phenylamino)-4,5,6,7-tetrahydropyrazolo[3,4-d]pyrimidin-2-yl)methyl)benzoic acid] | ≤ 0.05
